# Article PMC9913425, “Pentacyclic Triterpenoids-Based Ionic Compounds: Synthesis, Study of Structure–Antitumor Activity Relationship, Effects on Mitochondria and Activation of Signaling Pathways of Proliferation, Genome Reparation and Early Apoptosis” (Cancers, 2023)
# Assays:
# [1] = test system: A2780; test: In vitro cytotoxicity, IC50 by flow cytometry (Guava ViaCount); format: cell-based, human
# Procedure, shortened: (§1)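 Suspension lines kept in RPMI 1640 with 10% FBS and […] at 37 °C, 5% CO2; cells seeded at 5 × 10^4 per well and incubated overnight before compound exposure. Viability counted by flow cytometry with Guava ViaCount staining to derive IC50.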
# [2] = test system: p53; test: Luminex xMAP panel, p53 protein content; format: cell-based; conditions: Jurkat cells; 12a 0.006 µM, 13d 0.004 µM per 100,000 cells; first 6 h
# [3] = test system: STAT3; test: Luminex xMAP Multi-Pathway 9-plex, tyrosine-phosphorylated STAT3; format: cell-based; conditions: Jurkat cells; 12a 0.006 µM, 13d 0.004 µM per 100,000 cells; up to 12 h; compared with STAT5 (3-fold)
# From the text: The determination of proteins in a cell by Luminex xMAP technology is characterized by the presence of multiplex multiparametric analysis with the simultaneous use of a multiplex of antibodies with a fluorescent label and magnetic particles, thereby resulting in an increase in the sensitivity of the technique and expansion of the dynamic range, as well as an increase in detection accuracy. Luminex XMAP technology provides a simultaneous analysis of a sufficient number of different proteins in various types of biological fluids (plasma, serum, cerebrospinal fluid, follicular fluid, tissue lysate, etc.) and in cell supernatants. […]
# Magnetic microspheres (stained inside with two fluorescent dyes) in combination with monoclonal antibodies against the analyzed analytes (the main intracellular kinases in this case) are incubated with the samples and standards; then, the samples/standards are incubated with biotinylated monoclonal antibodies against the analyzed analytes and, finally, with a solution of streptavidin–phycoerythrin. The Luminex technology identifies the different proteins present in each well and converts the mean fluorescence intensity (MFI) of each measured cytokine to pg/mL using software and standard curves. […]
# The specific role of STAT3 and STAT5 was assessed by changes in the content of tyrosine-phosphorylated forms of these proteins (STAT3(ph) and STAT5(ph)). […]
# [4] = test system: HEK293; test: In vitro cytotoxicity, IC50 by flow cytometry (Guava ViaCount); format: cell-based; conditions: conditionally normal
# Procedure, shortened: as §1
# [5] = test system: Jurkat; test: as above; format: cell-based; conditions: Jurkat cells
# Procedure, shortened: as §1
# [6] = test system: K562; test: as above; format: cell-based
# Procedure, shortened: as §1
# [7] = test system: U937; test: as above; format: cell-based
# Procedure, shortened: as §1
# [8] = test system: p21; test: Luminex xMAP panel, p21 protein content; format: cell-based; conditions: Jurkat cells; 12a 0.006 µM, 13d 0.004 µM per 100,000 cells; first 6 h
# [9] = test system: Jurkat cells; test: Apoptosis/necrosis induction (Annexin V Alexa Fluor488, 7AAD staining); format: cell-based; conditions: compound at IC50 concentration, incubation 2 h
# Procedure, shortened: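 Jurkat cells stained with Annexin V Alexa Fluor488, 7AAD and MitoSense Red to assess membrane state, DNA and mitochondrial membrane integrity, distinguishing apoptosis from necrosis; lower MitoSense Red fluorescence marks mitochondrial damage.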
# [10] = test system: Jurkat cells; test: Cell cycle analysis (Guava Cell Cycle Reagent); format: cell-based; conditions: IC50 concentration, 24 h, flow histogram
# Procedure: Our findings are consistent with the literature data that many ICs predominantly affect the G2 and S phases, reducing them.
# The incubation time of ionic liquids with cells was 24 h. […] It is listed because the picture prints the label with values. / The fit parameters printed in each histogram (RMS, Mean G1, Mean G2, G2/G1, CV G1, CV G2) were left out as statistics of the cell-cycle model.
SMILES,"IC50 ([1]; Homo sapiens, A2780, A2780 cells)",expression of p53 protein [2],increase in the content of STAT3 [3],"IC50 ([4]; Homo sapiens, HEK293, HEK293 cells)","IC50 ([5]; Homo sapiens, Jurkat)","IC50 ([6]; Homo sapiens, K562, K562 cells)","IC50 ([7]; Homo sapiens, U-937, U937 cells)",expression of p21 protein [8],Apoptosis (%) Early [9],Apoptosis (%) Late [9],Apoptosis (%) Necrosis [9],percentage of cells in the apoptotic state [9],IC50 ([1]; A2780 cells),Freq Sub-G1 (hypodiploid cell population) [10],IC50 ([4]; HEK293 cells),IC50 [5],IC50 ([6]; K562 cells),IC50 ([7]; U937 cells)
"CC1(C)CC[C@]2(C(=O)OCCCCCC[n+]3ccccc3)CC[C@]3(C)C(=CCC4[C@@]5(C)CC[C@H](O)C(C)(C)C5CC[C@]43C)C2C1 (stereo partly drawn) [12a, 1-(6-{[(3β)-3-Hydroxyolean-12-en-28-oyl]oxy}hexyl)-pyridinium bromide]",21 ± 2 nM,significantly increased,to a lesser extent,44 ± 4 nM,6 ± 1 nM,7 ± 1 nM,6 ± 1 nM,significantly increased,0%,22.63%,65.18%,87.81%,,,,,,
"CC(=O)[O-].C[n+]1ccn(CCCCCCOC(=O)[C@]23CCC(C)(C)CC2C2=CCC4[C@@]5(C)CC[C@H](O)C(C)(C)C5CC[C@@]4(C)[C@]2(C)CC3)c1 (stereo partly drawn) [13d, 1-(6-{[(3β)-3-Hydroxyolean-12-en-28-oyl]oxy}hexyl)-3-methylimidazolium Acetate]",,significantly increased,to a lesser extent,,,,,significantly increased,11.00%,,85.0%,98.32%,16 ± 2 nM,6.91%,29 ± 2 nM,4 ± 1 nM,6 ± 1 nM,5 ± 1 nM
